According to patent US11976074B1, “Crystalline salts of Linsitinib” (Sling Therapeutics, Inc., priority 2023, dated 2024):
One block for each molecule: values may come before it.

Assays:
Format in all cases: physicochemical
[1] = Physical stability on capped storage at room temperature (PXRD reanalysis)
Description: A theoretical hemi-hydrate for a mono-edisylate salt of linsitinib would contain 1.4% water. Additional endotherms are observed at 252 and 278° C. that are likely due to melt/decomposition based on the corresponding weight loss in the TGA beginning around 244° C.
HCl 1 was generated via evaporation of a solution containing 1:1 linsitinib:acid in tetrahydrofuran (THF)/water at 70° C. […] The weight loss is likely due to water and potentially evolution of hydrochloric acid.
The sample was initially analyzed by PXRD and stored at ambient temperature in a capped vial. (FIG. 85).

[2] = pH-solubility of linsitinib free base and selected salts (pH 1.5 to 6.5, overnight equilibration, HPLC); conditions: for solubility: overnight equilibration; for Final pH: after overnight equilibration
Description: The pH-solubility of selected salts (Phosphate 1, L-Malate 1, Esylate 1, and Esylate 2) was evaluated and compared with linsitinib free base. The solubility analysis was conducted in a manner consistent with a previous study that was performed with linsitinib free base. Aqueous solutions were prepared between pH 1.5 and pH 6.5 in 0.5 pH unit increments via titration of the solution using NaOH and HCl. For each salt or the free base, an attempt was made to reach saturation in each of the solutions by adding sufficient material to the solution such that excess solids remained. If saturation was achieved, the pH of the solution was measured and adjusted to the target pH and additional material was added if needed. The samples were then equilibrated overnight. The final pH of the solution was measured, the solids were filtered and selected samples were analyzed by PXRD. The concentration of linsitinib in the filtrate was quantitated by HPLC (diluted as needed). In some cases, significant drift (+1 pH unit or more) of the final pH from the target pH was observed after the overnight equilibration.
The pH-solubility data is shown graphically in FIG. 89. […] Indeed, it should be noted that in the majority of the low pH systems, higher initial dissolution/solubility was observed followed by precipitation of the material from solution upon longer equilibration.

[3] = Equilibrium solubility in bio-relevant media (FaSSGF pH 1.6, FaSSIF pH 6.5); conditions: for Solubility compared with the free base: in words
Text: In addition to the pH-solubility data, a comparison of the equilibrium solubility of linsitinib free base and salts in two bio-relevant media (Table 28), fasted state simulated gastric fluid (FaSSGF pH 1.6) and intestinal fluid (FaSSIF pH 6.5) was completed. […] A saturated solution of Esylate 1 was not achieved during this study and therefore the equilibrium solubility could be higher than determined. It should be noted that variability of almost a full pH unit was noted among the samples making a direct comparison more challenging.

[4] = Water activity slurries of Esylate 2 seeded with Esylate 1; conditions: THF/H2O, aw 0.45-0.91, RT
Text: Water activity slurries were set-up with Esylate 2 and seeds of Esylate 1 to explore the presence of a potential hydrate and any associated critical water activity (Table 12). Four slurries were set-up in varying ratios of THF and H2O corresponding to 0.45, 0.63, 0.78 and 0.91 aw respectively.

[5] = Interconversion slurries of esylate forms; conditions: 4° C., RT, 60° C.; MEK and 2:1 EtOH:HEP
Description: To find the thermodynamically stable form of the mono-salt, interconversion slurries were set-up at three different temperatures in two different solvent systems between Esylates 1, 2, 3 and Esylate 4+Esylate 5 (Table 11). A sample of Esylate 4+Esylate 5 was included as part of the interconversion slurry in-spite of Esylate 4 being a solvate as Esylate 5 could not be isolated as a separate pure phase until the drying experiment was carried out on Esylate 4 towards the end of the study. Slurries were set-up at 4° C., RT and at 60° C. in MEK and 2:1 EtOH:HEP, resulting in a total of six experiments which were run for a total of 7 days.

[6] = Polymorph screen of linsitinib malate (PXRD/XRPD result); conditions: solvent and conditions per sample no.; for PXRD Results: polymorph screen of linsitinib malate, slurry, cooling, precipitation or lyophilization
Description: A Rigaku SmartLab X-Ray Diffractometer was configured in Bragg-Brentano reflection geometry equipped with a beam stop and knife edge to reduce incident beam and air scatter.
A polymorph screen of linsitinib malate was conducted. Experiments were designed to target thermodynamically stable forms and therefore utilized techniques such as long-term slurry, cooling, anti-solvent addition, and evaporation. Reaction crystallization experiments with linsitinib free base and L-malic acid were also conducted. Additionally, non-crystalline material was used as an alternative starting material as this can provide access to polymorphs that would not be accessible from crystalline starting material.

[7] = Thermogravimetric analysis (TGA)
Description: The TG analysis was carried out using a TA Instruments […] Discovery Series instrument. The instrument balance was calibrated using class M weights and the temperature calibration was performed using alumel. The nitrogen purge was 10 mL per minute at the balance and 25 mL per minute at the furnace. The sample was placed into a pre-tared platinum pan and heated from approximately 25° C. to 300° C. at a rate of 10° C. per minute.

[8] = aqueous solution, pH 4, aqueous buffer, thermodynamic from solid, target pH 4.0, * = clear solution, not equilibrium value, read-out: Solubility
[9] = aqueous solution, pH 4.5, aqueous buffer, thermodynamic from solid, target pH 4.5, * = clear solution, not equilibrium value, read-out: Solubility
[10] = aqueous solution, pH 5, aqueous buffer, thermodynamic from solid, target pH 5.0, read-out: Solubility
[11] = aqueous solution, pH 5.5, aqueous buffer, thermodynamic from solid, target pH 5.5, read-out: Solubility
[12] = aqueous solution, pH adjusted with NaOH and HCl, pH 1.5, aqueous buffer, thermodynamic from solid, target pH 1.5, * = clear solution, not equilibrium value, read-out: Solubility
[13] = aqueous solution, pH adjusted with NaOH and HCl, pH 2, aqueous buffer, thermodynamic from solid, target pH 2.0, * = clear solution, not equilibrium value, read-out: Solubility
[14] = aqueous solution, pH adjusted with NaOH and HCl, pH 2.5, aqueous buffer, thermodynamic from solid, target pH 2.5, * = clear solution, not equilibrium value, read-out: Solubility
[15] = aqueous solution, pH adjusted with NaOH and HCl, pH 3, aqueous buffer, thermodynamic from solid, target pH 3.0, * = clear solution, not equilibrium value, read-out: Solubility
[16] = aqueous solution, pH adjusted with NaOH and HCl, pH 3.5, aqueous buffer, thermodynamic from solid, target pH 3.5, * = clear solution, not equilibrium value, read-out: Solubility
[17] = fasted state simulated gastric fluid (FaSSGF), pH 1.6, fassgf or other biorelevant, thermodynamic from solid, FaSSGF (pH 1.6), read-out: Solubility

SMILES: C[C@]1(O)C[C@@H](c2nc(-c3ccc4ccc(-c5ccccc5)nc4c3)c3c(N)nccn32)C1 [Edisylate 1]
- PXRD result after storage at RT ([1]; 20 days, capped): no significant changes
- PXRD result after storage at RT ([1]; 20 days, capped, listed as 2-4): Edisylate 1

SMILES: CCS(=O)(=O)O.C[C@]1(O)C[C@@H](c2nc(-c3ccc4ccc(-c5ccccc5)nc4c3)c3c(N)nccn32)C1 [Esylate 1]
- solubility [2, 8]: 32.3 mg/mL
- solubility [2, 9]: 36.6 mg/mL
- solubility [2, 10]: 28.7 mg/mL
- solubility [2, 11]: 0.0517 mg/mL
- solubility [2, 12]: 64.3 mg/mL
- solubility [2, 13]: 59.1 mg/mL
- solubility [2, 14]: 47.3 mg/mL
- solubility [2, 15]: 53 mg/mL
- solubility [2, 16]: 31 mg/mL
- Solubility compared to the free base and other salts ([2]; between pH 3 and pH 4): highest solubility
- Solubility compared with the free base or Phosphate 1 ([2]; lower pH (<3)): significantly higher solubility
- Final pH ([2]; target pH 1.5): 1.52
- Final pH ([2]; target pH 2.0): 1.99
- Final pH ([2]; target pH 2.5): 2.50
- Final pH ([2]; target pH 3.0): 3.04
- Final pH ([2]; target pH 3.5): 3.50
- Final pH ([2]; target pH 4.0): 3.94
- Final pH ([2]; target pH 4.5): 4.36
- Final pH ([2]; target pH 5.0): 3.86
- Final pH ([2]; target pH 5.5): 4.47
- Final pH ([2]; target pH 6.0): 9.08
- Final pH ([2]; target pH 6.5): 4.46
- solubility ([2]; target pH 6.5): 0.0296 mg/mL
- Final pH ([3]; FaSSGF (pH 1.6)): 3.30
- Solubility compared with the free base ([3]; FaSSGF (pH 1.6)): highest solubility by a significant margin
- Final pH ([3]; FaSSIF (pH 6.5)): 6.20
- solubility ([3]; FaSSIF (pH 6.5)): 0.006 mg/mL
- Solubility compared with the free base ([3]; FaSSIF (pH 6.5)): lower solubility
- solubility [3, 17]: ≥ 61.6 mg/mL
- Relative stability of the form in water activity slurries [4]: metastable

SMILES: CCS(=O)(=O)O.C[C@]1(O)C[C@@H](c2nc(-c3ccc4ccc(-c5ccccc5)nc4c3)c3c(N)nccn32)C1 [Esylate 5]
- Relative stability of the form in interconversion slurries [5]: metastable

SMILES: C[C@]1(O)C[C@@H](c2nc(-c3ccc4ccc(-c5ccccc5)nc4c3)c3c(N)nccn32)C1 [Form B, reference compound]
- PXRD result after storage at RT ([1]; 23 days): Form B (LC)

SMILES: C[C@]1(O)C[C@@H](c2nc(-c3ccc4ccc(-c5ccccc5)nc4c3)c3c(N)nccn32)C1 [Form I]
- PXRD result after storage at RT ([1]; 20 days, capped, listed as 2-13): Form I

SMILES: C[C@]1(O)C[C@@H](c2nc(-c3ccc4ccc(-c5ccccc5)nc4c3)c3c(N)nccn32)C1 [Form J]
- PXRD result after storage at RT ([1]; 17 days, capped): Form I
- PXRD result after storage at RT ([1]; 20 days, capped): converted to Form I

Now from value to molecule:

- PXRD result after storage at RT ([1]; 17 days, capped): no significant changes
- PXRD result after storage at RT ([1]; 17 days, capped, listed as 2-11): HCl 1
SMILES: C[C@]1(O)C[C@@H](c2nc(-c3ccc4ccc(-c5ccccc5)nc4c3)c3c(N)nccn32)C1.Cl [HCl 1]

- PXRD Results ([6]; listed as 4-45): Malate 2
SMILES: C[C@]1(O)C[C@@H](c2nc(-c3ccc4ccc(-c5ccccc5)nc4c3)c3c(N)nccn32)C1.O=C(O)C[C@H](O)C(=O)O [L-Malate 2]

- TGA Results (weight loss) ([7]; 90° C. to 139° C.): 0.6%, 90 °C to 139 °C
- TGA Results (weight loss) ([7]; start to 90° C.): 3.0%, start to 90 °C
- PXRD Results ([6]; listed as 4-22): Malate 3; LC
SMILES: C[C@]1(O)C[C@@H](c2nc(-c3ccc4ccc(-c5ccccc5)nc4c3)c3c(N)nccn32)C1.O=C(O)C[C@H](O)C(=O)O [L-Malate 3]

- TGA Results (weight loss) ([7]; start to 61° C.): 4.2%, start to 61 °C
SMILES: C[C@]1(O)C[C@@H](c2nc(-c3ccc4ccc(-c5ccccc5)nc4c3)c3c(N)nccn32)C1.O=C(O)C[C@H](O)C(=O)O [L-Malate 6]

- XRPD Results ([6]; polymorph screen starting from non-crystalline linsitinib L-malate, vapor stress, humidity stress, slurry or precipitation, listed as 4-66): Malate 9
SMILES: C[C@]1(O)C[C@@H](c2nc(-c3ccc4ccc(-c5ccccc5)nc4c3)c3c(N)nccn32)C1.O=C(O)C[C@H](O)C(=O)O [L-Malate 9]

- solubility [2, 8]: 5.87 mg/mL
- solubility [2, 9]: 3.04 mg/mL
- solubility [2, 10]: 0.0458 mg/mL
- solubility [2, 11]: 0.035 mg/mL
- solubility ([2]; aqueous solution, pH 6, aqueous buffer, thermodynamic from solid, target pH 6.0, read-out: Solubility): 0.0046 mg/mL
- solubility ([2]; aqueous solution, pH 6.5, aqueous buffer, thermodynamic from solid, target pH 6.5, read-out: Solubility): 0.001 mg/mL
- solubility [2, 12]: 38.6 mg/mL
- solubility [2, 13]: 25.9 mg/mL
- solubility [2, 14]: 18.4 mg/mL
- solubility [2, 15]: 14.9 mg/mL
- solubility [2, 16]: 7.5 mg/mL
- Final pH ([2]; target pH 1.5): 1.39
- Final pH ([2]; target pH 2.0): 1.72
- Final pH ([2]; target pH 2.5): 2.46
- Final pH ([2]; target pH 3.0): 2.58
- Final pH ([2]; target pH 3.5): 2.89
- Final pH ([2]; target pH 4.0): 3.69
- Final pH ([2]; target pH 4.5): 4.01
- Final pH ([2]; target pH 5.0): 5.49
- Final pH ([2]; target pH 5.5): 5.73
- Final pH ([2]; target pH 6.0): 5.65
- Final pH ([2]; target pH 6.5): 6.21
- Final pH ([3]; FaSSGF (pH 1.6)): 2.74
- Solubility compared with the free base ([3]; FaSSGF (pH 1.6)): largely comparable
- Final pH ([3]; FaSSIF (pH 6.5)): 5.63
- solubility [3, 17]: 9.51 mg/mL
- solubility ([3]; fasted state simulated intestinal fluid (FaSSIF), pH 6.5, fassif, thermodynamic from solid, FaSSIF (pH 6.5), read-out: Solubility): 0.009 mg/mL
SMILES: C[C@]1(O)C[C@@H](c2nc(-c3ccc4ccc(-c5ccccc5)nc4c3)c3c(N)nccn32)C1.O=P(O)(O)O [Phosphate 1]
